Data reported in US8778966B2, “Quinolinone derivatives as PARP and tank inhibitors” (Janssen Pharmaceutica, NV, priority 2007, dated 2014).

How the values were obtained:
[1] = tested on: HCT116 cells; assay: Antiproliferative activity, Alamar Blue assay, HCT116 cells; type: cell-based, human; set-up: key to HCT116 antiproliferative activity pIC50: pIC50 = -log IC50 (IC50: conc. reducing growth to 50% of control); settings: for IC50: Homo sapiens, HCT-116, HCT116 cells, read-out: HCT116 antiproliferative activity pIC50 (converted)
Summary of the method: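 HCT116 cells seeded, adhered 24 h, then exposed to compound for 4 days; Alamar Blue (resazurin) added for 4 h at 37 °C, fluorescence read at 540/590 nm. Viability as % of untreated control, triplicate wells; IC50 by probit analysis, reported as pIC50.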

[2] = tested on: PC-3 cells; assay: Antiproliferative activity, Alamar Blue assay, PC-3 cells; type: cell-based, human; settings: for IC50: Homo sapiens, PC-3, PC3 cells, read-out: PC3 antiproliferative activity pIC50 (converted)
Summary of the method: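 PC-3 cells seeded at 4.5×10^3 cells/ml, left to adhere 24 hr, then exposed to compound for 4 days. Resazurin (Alamar Blue) added for a further 24 hrs at 37° C; fluorescence read at 540/590 nm. Viability as % of untreated control, mean of 3 wells; IC50 by probit analysis, reported as pIC50.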

SMILES	IC50 [1]	IC50 [2]	HCT116 antiproliferative activity pIC50 ([1]; HCT116 cells)	PC3 antiproliferative activity pIC50 ([2]; PC3 cells)
CCc1cc2ccc([C@](C)(C#N)Cc3cc(F)cc(F)c3)cc2[nH]c1=O [Compound 333]	10000 nM	10000 nM		
CCc1cc2ccc(C(C)(C#N)Cc3ccc(C(F)(F)F)nc3C)cc2[nH]c1=O (stereo not drawn) [Compound 340]	3160 nM	3980 nM		
CCc1cc2ccc(C(C)(C#N)Cc3ccnc(Cl)c3)cc2[nH]c1=O (stereo not drawn) [Compound 341]	2510 nM	6310 nM		
CCc1cc2ccc(C(C#N)(CC)Cc3cccc(C#N)n3)cc2[nH]c1=O (stereo not drawn) [Compound 342]	501 nM	1260 nM		
CCc1cc2ccc(C(C)(C#N)CCOc3ccnc(SC)n3)cc2[nH]c1=O (stereo not drawn) [Compound 348]	3160 nM	7940 nM		
CCc1cc2ccc(C(C)(C#N)CCOc3ncc(Br)cn3)cc2[nH]c1=O (stereo not drawn) [Compound 349]	631 nM	1580 nM		
CCc1cc2ccc(C(C)(C#N)Cc3nc(C)cc(OC)n3)cc2[nH]c1=O (stereo not drawn) [Compound 371]	316 nM	398 nM		
CCc1cc2ccc(C(C)(C#N)CN3CCN(c4ncc(Br)cn4)CC3)cc2[nH]c1=O (stereo not drawn) [Compound 374]	501 nM	794 nM		
CCc1cc2ccc(C(C)(C#N)CN3CCc4ccccc4C3)cc2[nH]c1=O (stereo not drawn) [Compound 376]	2000 nM	2510 nM		
Cc1cc2ccc([C@@](C)(C#N)[C@@H]3CCCc4ccccc43)cc2[nH]c1=O [Compound 382]	5010 nM	10000 nM		
CCc1cc2ccc(C(C#N)(CC)Cc3cccc(CN)c3)cc2[nH]c1=O (stereo not drawn) [Compound 390]	631 nM	2510 nM		
CCc1cc2ccc([C@](C)(C#N)C[C@H]3Cc4ccccc4O3)cc2[nH]c1=O [Compound 397]	7940 nM	10000 nM		

The remaining lines, values ahead:

IC50 [1]	IC50 [2]	HCT116 antiproliferative activity pIC50 ([1]; HCT116 cells)	PC3 antiproliferative activity pIC50 ([2]; PC3 cells)	SMILES
5010 nM	7940 nM			CCc1cc2ccc(C(C)(C#N)CC3Oc4ccccc4O3)cc2[nH]c1=O (stereo not drawn) [Compound 398]
		6.7	6.4	CCc1cc2ccc(C(C)(C#N)Cc3cc(F)cc(F)c3)cc2[nH]c1=O (stereo not drawn) [Compound 402]
158 nM	316 nM			CCc1cc2ccc(C(C#N)(CC)C3CCc4ccc(OC)cc43)cc2[nH]c1=O (stereo not drawn) [Compound 403]
50.1 nM	79.4 nM			Cc1cc2ccc([C@@](C)(C#N)[C@H]3CCc4ccc(Br)cc43)cc2[nH]c1=O [Compound 405]
10000 nM	10000 nM			Cc1cc2ccc([C@](C)(C#N)[C@@H]3CCc4ccc(Br)cc43)cc2[nH]c1=O [Compound 406]
631 nM	1260 nM			Cc1cc2ccc([C@](C)(C#N)[C@H]3CCc4ccc(Br)cc43)cc2[nH]c1=O [Compound 407]
